{"source": "patent US9474790B2", "about": "“Stable, protracted GLP-1/glucagon receptor co-agonists for medical use” (Novo Nordisk A/S, priority 2013, dated 2016)", "note": "Numbered stars: 1 amine (or outer) side, 2 acyl side, 3 side chain; on linkers, the order of the positions; unused ones are H or OH. Bridge positions count the residues as written; N and C are the ends. Square brackets hold non-standard residues; d marks the D form. Side chains are listed from the residue outwards. Peptide text beside a SMILES is read from it. I, II: the chains in the order shown. * marks the point of attachment. C18 diacid = O=C(O)CCCCCCCCCCCCCCCCC(=O)*; γGlu = O=C(O)[C@H](CCC(=O)[*:2])N[*:1]; Ac4c = NC1(C(=O)O)CCC1; AEEA = NCCOCCOCC(=O)O; Aib = CC(C)(N)C(=O)O", "data": [{"molecular_target": "T1, human GLP-1 receptor (Homo sapiens, UniProt P43220)", "T1 construct": "expressed in transfected cells; host or cells: BHK cells (parent BHKTS13), clone FCW467-12A/KZ10-1, with CRE luciferase", "T1 sequence (P43220 24-463)": "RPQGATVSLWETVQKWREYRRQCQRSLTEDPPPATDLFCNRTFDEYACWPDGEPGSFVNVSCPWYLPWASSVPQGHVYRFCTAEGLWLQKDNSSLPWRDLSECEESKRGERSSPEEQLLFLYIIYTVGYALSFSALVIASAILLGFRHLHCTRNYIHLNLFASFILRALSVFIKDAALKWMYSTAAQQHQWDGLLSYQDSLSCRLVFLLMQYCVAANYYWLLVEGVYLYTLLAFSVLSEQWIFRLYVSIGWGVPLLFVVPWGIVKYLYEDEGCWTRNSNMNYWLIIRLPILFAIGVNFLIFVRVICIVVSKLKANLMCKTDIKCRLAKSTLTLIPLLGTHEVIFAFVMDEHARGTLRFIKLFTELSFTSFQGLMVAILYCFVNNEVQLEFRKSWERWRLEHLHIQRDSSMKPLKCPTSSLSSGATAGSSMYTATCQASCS", "assay": "GLP-1 receptor potency, CRE luciferase reporter gene assay in BHK cells", "type": "cell-based", "conditions": "BHK cells expressing human GLP-1 receptor, read-out: EC50 GLP-1R", "summary_of_the_method": "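Potency as cAMP-driven firefly luciferase signal after 3 h, 37° C exposure to 10-fold dilutions (final 1×10EE-13–1×10EE-6 M). Stable hGLP-1R/CRE-luc BHK clone, 5×10EE3 cells/well, medium containing 2% ovalbumin and 0.2% Pluronic F-68; EC50 (pM) from variable-slope non-linear regression.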", "units": {"EC50": "pM"}, "values": [{"molecule": "CC(C)C[C@H](NC(=O)[C@H](CC(C)C)NC(=O)[C@H](Cc1c[nH]c2ccccc12)NC(=O)[C@H](CCC(N)=O)NC(=O)[C@@H](NC(=O)[C@H](Cc1ccccc1)NC(=O)[C@H](CCC(=O)O)NC(=O)[C@H](CCCNC(=N)N)NC(=O)[C@H](C)NC(=O)[C@H](CCCNC(=N)N)NC(=O)[C@H](CCCNC(=N)N)NC(=O)[C@H](CO)NC(=O)[C@H](CCC(=O)O)NC(=O)[C@H](CC(C)C)NC(=O)[C@H](Cc1ccc(O)cc1)NC(=O)[C@H](CCCCN)NC(=O)[C@H](CO)NC(=O)[C@H](CC(C)C)NC(=O)[C@H](CC(=O)O)NC(=O)[C@H](CO)NC(=O)[C@@H](NC(=O)[C@H](Cc1ccccc1)NC(=O)[C@@H](NC(=O)CNC(=O)[C@H](CCC(N)=O)NC(=O)C(C)(C)NC(=O)[C@@H](N)Cc1c[nH]cn1)[C@@H](C)O)[C@@H](C)O)C(C)C)C(=O)N[C@@H](CC(N)=O)C(=O)N[C@@H](CCCCNC(=O)CC[C@H](NC(=O)COCCOCCNC(=O)COCCOCCNC(=O)CC[C@H](NC(=O)CC[C@H](NC(=O)CCCCCCCCCCCCCCCCC(=O)O)C(=O)O)C(=O)O)C(=O)O)C(N)=O", "note": "[Example 21, N^ε29-[(4S)-4-carboxy-4-[[2-[2-[2-[[2-[2-[2-[[(4S)-4-carboxy-4-[[(4S)-4-carboxy-4-(17-carboxyheptadecanoylamino)butanoyl]amino]butanoyl]amino]ethoxy]ethoxy]acetyl]amino]ethoxy]ethoxy]acetyl]amino]butanoyl]-[Aib2,Leu10,Glu15,Arg20,Glu21,Leu27,Lys29]-Glucagon amide] (H-H[Aib]QGTFTSDLSKYLESRRAREFVQWLLNK([γGlu-AEEA-AEEA-γGlu-γGlu-C18 diacid])-NH2; N-terminus assumed)", "EC50": 2.7}, {"molecule": "CC(C)C[C@H](NC(=O)[C@H](Cc1ccc(O)cc1)NC(=O)[C@H](CCCCN)NC(=O)[C@H](CO)NC(=O)[C@H](CC(C)C)NC(=O)[C@H](CC(=O)O)NC(=O)[C@H](CO)NC(=O)[C@@H](NC(=O)[C@H](Cc1ccccc1)NC(=O)[C@@H](NC(=O)CNC(=O)[C@H](Cc1c[nH]cn1)NC(=O)C1(NC(=O)[C@@H](N)Cc2c[nH]cn2)CCC1)[C@@H](C)O)[C@@H](C)O)C(=O)N[C@@H](CCC(=O)O)C(=O)N[C@@H](CO)C(=O)N[C@@H](CCCNC(=N)N)C(=O)N[C@@H](CCCNC(=N)N)C(=O)N[C@@H](C)C(=O)N[C@@H](CCC(N)=O)C(=O)N[C@@H](CC(=O)O)C(=O)N[C@@H](Cc1ccccc1)C(=O)N[C@H](C(=O)N[C@@H](CCC(N)=O)C(=O)N[C@@H](Cc1c[nH]c2ccccc12)C(=O)N[C@@H](CC(C)C)C(=O)N[C@@H](CC(C)C)C(=O)N[C@@H](CCCCNC(=O)CNC(=O)[C@H](CO)NC(=O)[C@H](CCC(=O)O)NC(=O)CNC(=O)[C@H](CO)NC(=O)CC[C@H](NC(=O)CC[C@H](NC(=O)CCCCCCCCCCCCCCCCC(=O)O)C(=O)O)C(=O)O)C(=O)N[C@H](C(N)=O)[C@@H](C)O)C(C)C", "note": "[Example 35, N^ε28-[2-[[(2S)-2-[[(2S)-4-carboxy-2-[[2-[[(2S)-2-[[(4S)-4-carboxy-4-[[(4S)-4-carboxy-4-(17-carboxyheptadecanoylamino)butanoyl]amino]butanoyl]amino]-3-hydroxypropanoyl]amino]acetyl]amino]butanoyl]amino]-3-hydroxypropanoyl]amino]acetyl]-[Acb2,His3,Leu10,Glu15, Leu27,Lys28]-Glucagon amide] (I: H-H[Ac4c]HGTFTSDLSKYLESRRAQDFVQWLLKT-NH2 / II: {C18 diacid-γGlu-γGlu}-SGESG; amide I:28-II:C; N-terminus assumed)", "EC50": 3}, {"molecule": "CC(C)C[C@H](NC(=O)[C@H](Cc1ccc(O)cc1)NC(=O)[C@H](CCCCN)NC(=O)[C@H](CO)NC(=O)[C@H](CC(C)C)NC(=O)[C@H](CC(=O)O)NC(=O)[C@H](CO)NC(=O)[C@@H](NC(=O)[C@H](Cc1ccccc1)NC(=O)[C@@H](NC(=O)CNC(=O)[C@H](Cc1c[nH]cn1)NC(=O)C(C)(C)NC(=O)[C@@H](N)Cc1c[nH]cn1)[C@@H](C)O)[C@@H](C)O)C(=O)N[C@@H](CCC(=O)O)C(=O)N[C@@H](CO)C(=O)N[C@@H](CCCNC(=N)N)C(=O)N[C@@H](CCCNC(=N)N)C(=O)N[C@@H](C)C(=O)N[C@@H](CCCNC(=N)N)C(=O)N[C@@H](CC(=O)O)C(=O)N[C@@H](Cc1ccccc1)C(=O)N[C@H](C(=O)N[C@@H](CCC(N)=O)C(=O)N[C@@H](Cc1c[nH]c2ccccc12)C(=O)N[C@@H](CC(C)C)C(=O)N[C@@H](CC(C)C)C(=O)N[C@@H](CCCCNC(=O)CNC(=O)[C@H](CO)NC(=O)[C@H](CCC(=O)O)NC(=O)CNC(=O)[C@H](CO)NC(=O)CC[C@H](NC(=O)CC[C@H](NC(=O)CCCCCCCCCCCCCCCCC(=O)O)C(=O)O)C(=O)O)C(=O)N[C@H](C(N)=O)[C@@H](C)O)C(C)C", "note": "[Example 37, N^ε28-[2-[[(2S)-2-[[(2S)-4-carboxy-2-[[2-[[(2S)-2-[[(4S)-4-carboxy-4-[[(4S)-4-carboxy-4-(17-carboxyheptadecanoylamino)butanoyl]amino]butanoyl]amino]-3-hydroxypropanoyl]amino]acetyl]amino]butanoyl]amino]-3-hydroxypropanoyl]amino]acetyl]-[Aib2,His3,Leu10,Glu15, Arg20,Leu27,Lys28]-Glucagon amide] (I: H-H[Aib]HGTFTSDLSKYLESRRARDFVQWLLKT-NH2 / II: {C18 diacid-γGlu-γGlu}-SGESG; amide I:28-II:C; N-terminus assumed)", "EC50": 4}, {"molecule": "CC(C)C[C@H](NC(=O)[C@H](Cc1ccc(O)cc1)NC(=O)[C@H](CCCCN)NC(=O)[C@H](CO)NC(=O)[C@H](CC(C)C)NC(=O)[C@H](CC(=O)O)NC(=O)[C@H](CO)NC(=O)[C@@H](NC(=O)[C@H](Cc1ccccc1)NC(=O)[C@@H](NC(=O)CNC(=O)[C@H](CCC(N)=O)NC(=O)C(C)(C)NC(=O)[C@@H](N)Cc1c[nH]cn1)[C@@H](C)O)[C@@H](C)O)C(=O)N[C@@H](CCC(=O)O)C(=O)N[C@@H](CO)C(=O)N[C@@H](CCCCN)C(=O)N[C@@H](CCCNC(=N)N)C(=O)N[C@@H](C)C(=O)N[C@@H](CCCNC(=N)N)C(=O)N[C@@H](CCC(=O)O)C(=O)N[C@@H](Cc1ccccc1)C(=O)N[C@H](C(=O)N[C@@H](CCC(N)=O)C(=O)N[C@@H](Cc1c[nH]c2ccccc12)C(=O)N[C@@H](CC(C)C)C(=O)N[C@@H](CC(C)C)C(=O)N[C@@H](CCCCNC(=O)CC[C@H](NC(=O)CC[C@H](NC(=O)[C@H](CO)NC(=O)[C@H](CCC(=O)O)NC(=O)[C@H](CO)NC(=O)CC[C@H](NC(=O)CC[C@H](NC(=O)CCCCCCCCCCCCCCCCC(=O)O)C(=O)O)C(=O)O)C(=O)O)C(=O)O)C(=O)N[C@H](C(N)=O)[C@@H](C)O)C(C)C", "note": "[Example 52] (H-H[Aib]QGTFTSDLSKYLESKRAREFVQWLLK([γGlu-γGlu-Ser-Glu-Ser-γGlu-γGlu-C18 diacid])T-NH2; N-terminus assumed)", "EC50": 4}]}]}
